Results on 43 compounds are retold here after PubChem BioAssay AID651677 (The Scripps Research Institute Molecular Screening Center, 2012).

Active and inactive are the calls of the source. No rule for the calls is given here.

Sequence of Perilipin-5 (Homo sapiens) + 1-acylglycerol-3-phosphate O-acyltransferase ABHD5 (Homo sapiens) (Q00G26 whole entry, looked up): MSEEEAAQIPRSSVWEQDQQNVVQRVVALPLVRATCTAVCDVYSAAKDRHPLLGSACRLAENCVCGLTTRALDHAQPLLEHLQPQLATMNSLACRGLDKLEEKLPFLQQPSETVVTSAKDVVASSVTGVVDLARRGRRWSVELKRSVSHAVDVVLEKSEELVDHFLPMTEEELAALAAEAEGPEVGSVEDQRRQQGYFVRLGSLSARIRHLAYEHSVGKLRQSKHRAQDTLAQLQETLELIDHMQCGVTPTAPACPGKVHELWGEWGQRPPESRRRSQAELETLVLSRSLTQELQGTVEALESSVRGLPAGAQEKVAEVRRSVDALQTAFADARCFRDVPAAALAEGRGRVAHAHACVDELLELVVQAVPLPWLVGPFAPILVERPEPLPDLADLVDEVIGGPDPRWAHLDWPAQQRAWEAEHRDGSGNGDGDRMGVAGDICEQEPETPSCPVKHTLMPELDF
Sequence of Perilipin-5 (Homo sapiens) + 1-acylglycerol-3-phosphate O-acyltransferase ABHD5 (Homo sapiens) (Q8WTS1 whole entry, looked up): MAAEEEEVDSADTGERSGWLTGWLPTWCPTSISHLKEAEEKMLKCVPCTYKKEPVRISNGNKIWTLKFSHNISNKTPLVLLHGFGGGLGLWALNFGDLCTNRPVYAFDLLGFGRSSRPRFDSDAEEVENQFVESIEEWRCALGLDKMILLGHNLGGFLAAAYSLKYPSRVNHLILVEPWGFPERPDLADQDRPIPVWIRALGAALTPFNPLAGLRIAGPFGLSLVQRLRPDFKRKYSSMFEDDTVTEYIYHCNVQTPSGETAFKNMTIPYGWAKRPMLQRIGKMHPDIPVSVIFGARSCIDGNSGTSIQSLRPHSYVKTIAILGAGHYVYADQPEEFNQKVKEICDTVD

The assay concerns the target Perilipin-5 (Homo sapiens) + 1-acylglycerol-3-phosphate O-acyltransferase ABHD5 (Homo sapiens) (UniProt Q00G26+Q8WTS1). Put plainly: ABHD5-PLIN5 interaction inhibitors, dose response, biochemical, luminescence (AID 651677).
One may read the IC50 as the concentration that gives 50% inhibition. On to `CC1=CC(C)(C)Nc2ccc(OC(=O)CN3C(=O)CCC3=O)cc21`, for which the concentration for half-maximal inhibition (IC50) was 2.2 µM.

For the compound `O=C(NC1CCCCC1)C(c1ccnc2ccccc12)n1c(=O)c(-c2ccco2)nc2ccccc21` (stereo not drawn), the IC50 is 1.66 µM.

For the compound `Cc1ccc(CC2(OCCN(C)C)CCC(C(C)(C)C)CC2)cc1` (stereo not drawn), the IC50 was 8.61 µM.

On to `COc1ccc(C)c2sc(N(CCN(C)C)C(=O)/C=C/c3cccs3)nc12`, for which the half-maximal inhibitory concentration (IC50) was 9.91 µM.

On to `Cc1cccc(NC(=O)CSc2nnc(-c3ccco3)c(-c3ccco3)n2)c1`, for which the concentration for half-maximal inhibition (IC50) is 1.05 µM.

As for `CCN1CCN(Cc2ccc(NC(=O)c3ccc(C)c(/C=C/c4cnc(Nc5cc(N6CCNCC6)nc(C)n5)cn4)c3)cc2C(F)(F)F)CC1`, the IC50 is 2.58 µM.

Regarding `CCCC(=O)NC(c1cccc([N+](=O)[O-])c1)c1ccc2cccnc2c1O` (stereo not drawn), the IC50 was > 39.8 µM (inactive).

As for `CCN(CC)CCC(C)OC(c1ccccc1)c1ccccc1` (stereo not drawn), the IC50 was 3.43 µM.

As for `COC(=O)c1cc(=O)n(Cc2ccco2)c(=Nc2ccc(F)cc2)s1`, the IC50 was 3.68 µM.

Regarding `CC(C)(C)NC(=O)C(c1ccccc1F)n1c(=O)c(-c2ccco2)nc2ccccc21` (stereo not drawn), the 50% inhibitory concentration (IC50) is 2.27 µM.

Regarding `CC(C)(C)NC(=O)C(c1ccnc2ccccc12)n1c(=O)c(-c2ccco2)nc2ccccc21` (stereo not drawn), the IC50 is 4.81 µM.

For the compound `CN(C)CCCN(C(=O)CCc1ccccc1)c1nc2ccc(Br)cc2s1`, the half-maximal inhibitory concentration (IC50) is 7.91 µM.

In the case of `O=C(O)CC(O)(CC(=O)O)C(=O)O`, the IC50 is 5.63 µM.

Regarding `CC(C)(C)NC(=O)C(c1ccc(C(F)(F)F)cc1)n1c(=O)c(-c2ccco2)nc2ccccc21` (stereo not drawn), the IC50 was 1.33 µM.

Take `CCN(CCCc1ccccc1)CCCc1ccccc1`: the IC50 was 2.66 µM.

For `O=C(CF)N(O)c1ccc(C=Cc2ccccc2)cc1`, the IC50 is > 39.9 µM (inactive).

For `O=C1CC(c2ccc(Cl)cc2)Oc2ccc(Cl)cc21` (stereo not drawn), the half-inhibitory concentration (IC50) is 2.84 µM.

For the compound `CCOC(=O)c1c(NC(C)=O)sc2c1CCC(C=O)=C2Sc1ccccc1`, the half-inhibitory concentration (IC50) is 2.4 µM.

With `CCCCCNC(=O)C(c1ccc(OC)cc1)n1c(=O)c(-c2ccco2)nc2ccccc21` (stereo not drawn), the concentration for half-maximal inhibition (IC50) was 2.18 µM.

Take `CC(=O)C1=C(c2cccc([N+](=O)[O-])c2)N(C(C)=O)n2c(C)nnc2S1`: the IC50 was 2.86 µM.

In the case of `O=[N+]([O-])/C=C/c1cn(Cc2ccc(F)cc2)c2ccccc12`, the IC50 is 3.36 µM.

For `CN(C)CCOc1ccc(-c2c(-c3ccccc3)sc3ccccc23)cc1`, the IC50 result is “inactive”.

With `Cc1cccc(C)c1NC(=O)C(c1ccnc2ccccc12)n1c(=O)c(-c2ccco2)nc2ccccc21` (stereo not drawn), the IC50 is 3.55 µM.

For `CCSc1nnc(NC(=O)c2nc(S(=O)(=O)Cc3ccc(F)cc3)ncc2Cl)s1`, the IC50 was 2.36 µM.

Take `COC/C=C/C1=CC2=CC(=O)C(C)(OC(=O)C3CCCC3)C(=O)C2=CO1` (stereo not drawn): the concentration for half-maximal inhibition (IC50) is 1.75 µM.

As for `COc1ccc(NC(=S)N(CCCN2CCCC2)Cc2cccn2Cc2ccc(Cl)cc2)cc1Cl`, the IC50 result was “inactive”.

Turning to `CCCCC(=O)NC(c1cccc([N+](=O)[O-])c1)c1ccc2cccnc2c1O` (stereo not drawn), the IC50 is > 39.8 µM (inactive).

With `CCOc1cc(N)c(Cl)cc1C(=O)NCC1CN(Cc2ccc(F)cc2)CCO1` (stereo not drawn), the half-maximal inhibitory concentration (IC50) was 2.5 µM.

Consider `O=c1c(-c2ccco2)nc2ccccc2n1C(CCc1ccccc1)c1nc2ccccc2[nH]1` (stereo not drawn), for which the half-maximal inhibitory concentration (IC50) was 1.58 µM.

In the case of `CCCCCNC(=O)C(C1CC1)n1c(=O)c(-c2ccco2)nc2ccccc21` (stereo not drawn), the IC50 is 9.79 µM.

Consider `CC(C)(C)NC(=O)C(c1ccncc1)n1c(=O)c(-c2ccco2)nc2ccccc21` (stereo not drawn), for which the IC50 is 3.66 µM.

Take `NC(=O)C(C(=O)/C=C/c1ccc(Cl)cc1)=C1SCCS1`: the IC50 result was “inactive”.

As for `CC1=CC2C(C(O)CC3(C)C2CC(C)C32OCOC23COCO3)C2(C)C/C(=C\O)C(=O)C=C12` (stereo not drawn), the IC50 was 3.27 µM.

As for `C#CCN(C[C@@H]1[C@@H](OC(=O)NC2CCCC2)[C@@H](OC(=O)NC2CCCC2)Cn2c(=O)ccc(=O)n21)S(=O)(=O)c1ccc(C)cc1`, the IC50 was 3.69 µM.

`Cc1ccc(CS(=O)(=O)c2ncc(Cl)c(C(=O)Nc3nnc(C(C)C)s3)n2)cc1`: the concentration for half-maximal inhibition (IC50) was 1.38 µM.

`CCCCCNC(=O)C(c1cc2ccccc2o1)n1c(=O)c(-c2ccco2)nc2ccccc21` (stereo not drawn): the half-maximal inhibitory concentration (IC50) is 1.16 µM.

For `CC(C)(C)NC(=O)C(c1ccccc1)n1c(=O)c(-c2ccco2)nc2ccccc21` (stereo not drawn), the half-maximal inhibitory concentration (IC50) is 2.16 µM.

With `COc1ccc(NC(=O)c2cc3ccccc3cc2O)cc1`, the IC50 is 9.05 µM.

Take `O=C(Nc1ccc2c(c1)OCCO2)C(c1ccnc2ccccc12)n1c(=O)c(-c2ccco2)nc2ccccc21` (stereo not drawn): the IC50 entry was “inactive”.

As to `COc1ccc(NC(=O)C(c2ccc(C#N)cc2)n2c(=O)c(-c3ccco3)nc3ccccc32)cc1` (stereo not drawn), the IC50 was 8.62 µM.

With `O=c1nc(/C=C/c2ccc(Cl)cc2Cl)cc(C(F)(F)F)[nH]1`, the half-maximal inhibitory concentration (IC50) is 3.48 µM.

In the case of `CCCCOC(=O)Nc1cc(C(=O)OC)ccc1C(=O)OC`, the half-maximal inhibitory concentration (IC50) is 6.7 µM.

As for `C#CCN(C[C@@H]1[C@@H](OC(=O)NCc2ccccc2F)[C@@H](OC(=O)NCc2ccccc2F)Cn2c(=O)ccc(=O)n21)S(=O)(=O)c1ccc(C)cc1`, the IC50 is 5.04 µM.
